The numbers were not newly measured in patent US10674699B2, “Endophyte enhanced seedlings with increased pest tolerance” (priority 2006, dated 2020), which cites them from elsewhere.

The data set concerns spruce budworm cells. Particulars: Can J Chem 81: 284; cited from earlier work.

Take “trihydroxy-4-1′-hydroxyethyl) isocoumarin”: the “toxicity to spruce budworm cells” value is “^camong others; a new compound trihydroxy-4-1′-hydroxyethyl) isocoumarin also toxic to spruce budworm cells (Can J Chem 81: 284)”.
